Results from PubChem BioAssay (NCI).
Where “and” joins values, the source holds several entries; their conditions need not be identical. Equal values may be shown once.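 Results reflect a 48-hour exposure of cells in 96-well plates to compound at five concentrations. Here, GI50 denotes the concentration required for 50% inhibition of growth. Definition used: TGI = concentration required for complete inhibition of growth.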

Columns and labels:
Experiment in all cases: growth of human tumour cells (NCI), 48 h
786-0 renal = test system: 786-0 renal
A498 renal = test system: A498 renal
CAKI-1 renal = test system: CAKI-1 renal
IGROV1 ovarian = test system: IGROV1 ovarian
M14 melanoma = test system: M14 melanoma
MDA-MB-231 breast = test system: MDA-MB-231 breast
NCI-H522 lung = test system: NCI-H522 lung
OVCAR-3 ovarian = test system: OVCAR-3 ovarian
SNB-19 CNS = test system: SNB-19 CNS
SR leukemia = test system: SR leukemia

Row | SMILES | GI50 (786-0 renal) | TGI (786-0 renal) | GI50 (A498 renal) | TGI (A498 renal) | GI50 (CAKI-1 renal) | TGI (CAKI-1 renal) | GI50 (IGROV1 ovarian) | TGI (IGROV1 ovarian) | GI50 (M14 melanoma) | TGI (M14 melanoma) | GI50 (MDA-MB-231 breast) | TGI (MDA-MB-231 breast) [µM] | GI50 (NCI-H522 lung) | TGI (NCI-H522 lung) | GI50 (OVCAR-3 ovarian) | TGI (OVCAR-3 ovarian) | GI50 (SNB-19 CNS) | TGI (SNB-19 CNS) | GI50 (SR leukemia) [µM] | TGI (SR leukemia) [µM]
1 | O=C(c1ccco1)c1c(C(F)(F)F)n([O-])c2cc(F)c(F)cc2[n+]1=O | 0.0512 µM | 0.137 µM | 4.88 µM | 17.3 µM | 0.44 µM | 1.37 µM | 1.07 µM | 3.31 µM | 0.225 µM | 0.528 µM | 0.14 µM | 0.313 | 1.88 µM | 5.47 µM | 0.193 µM | 1.35 µM | 1.02 µM | 2.35 µM | 0.0237 | 0.39
2 | Nc1nc2ccccc2c2c1S(=O)(=O)c1ccc(Cl)cc1C2=O | 5.93 µM | > 50 µM | 2.37 µM | 22.5 µM | 1.59 µM | > 50 µM | 1.7 µM | > 50 µM | 2.45 µM | 35.4 µM | 1.57 µM | > 50 | 0.86 µM | 2.2 µM | 1.14 µM | 3.33 µM | 2.52 µM | > 50 µM | 0.917 | > 50
3 | N#C/C(=C\c1cc2ccc(N3CCC3)cc2oc1=O)C(=O)N(CC(=O)O)CC(=O)O | > 100 µM | > 100 µM | > 100 µM | > 100 µM | > 100 µM | > 100 µM | > 100 µM | > 100 µM | > 100 µM | > 100 µM | > 100 µM | > 100 | > 100 µM | > 100 µM | > 100 µM | > 100 µM | > 100 µM | > 100 µM | > 100 | > 100
4 | COc1ccc(S(=O)(=O)N2CCNCC2)cc1OC | > 100 µM | > 100 µM | > 100 µM | > 100 µM | > 100 µM | > 100 µM | > 100 µM | > 100 µM | > 100 µM | > 100 µM | > 100 µM | > 100 | > 100 µM | > 100 µM | > 100 µM | > 100 µM | > 100 µM | > 100 µM | > 100 | > 100
5 | N#Cc1cc2c(cc1Cl)Sc1nnc(Nc3cccc4ccccc34)n1S2(=O)=O | 16.9 µM | 45.4 µM | 17.5 µM | 31.7 µM | 3.14 µM | 10.9 µM | 7.38 µM | 21.2 µM | 3.81 µM | 22.8 µM | 2.49 µM | 6.96 | 21.6 µM | > 100 µM | 1.77 µM | 3.47 µM | 1.89 µM | 4.29 µM | 2.21 | 7.82
6 | CC(C)N(Cc1ccc(F)cc1)c1ccc(CO)c(Cl)c1 | 7 µM | 22.1 µM | 0.0225 µM | 0.134 µM | 0.245 µM | 2.02 µM | 0.0479 µM | 0.266 µM | 13 µM | 28.8 µM | 12.4 µM | 25.6 | 11.3 µM | 26.7 µM | 0.184 µM | 0.623 µM | 12.2 µM | 25.3 µM | 12.8 | 32.5
7 | NC(=O)CC(N)c1nn[nH]n1 (stereo unspecified) | – | > 100 µM | – | > 100 µM | – | > 100 µM | – | > 100 µM | – | > 100 µM | – | > 100 | – | > 100 µM | – | > 100 µM | – | > 100 µM | – | > 100
8 | O=c1[nH]c2ccccc2n1C1CCN(CCCC(c2ccc(F)cc2)c2ccc(F)cc2)CC1 | 1.75 µM and 2.79 µM | 3.38 µM and 7.58 µM | 1.12 µM and 8.77 µM | 2.36 µM and 22.7 µM | 1.39 µM and 7.46 µM | 2.96 µM and 20.9 µM | 1.96 µM | 3.86 µM and 32.4 µM | 1.83 µM | 3.72 µM and 8.19 µM | 1.33 µM and 7.38 µM | – | 1.73 µM | 3.36 µM and 10.4 µM | 1.7 µM and 4.37 µM | 3.13 µM and 13.1 µM | 1.67 µM | 3.29 µM and 28.8 µM | – | 5.22
9 | N#Cc1cccc(Nc2ncc(-c3ccccc3)o2)c1 | 12.9 µM | > 25 µM | > 22.2 µM | > 25 µM | 8.44 µM | > 25 µM | 11.7 µM | > 25 µM | > 25 µM | > 25 µM | 8.38 µM | > 25 | 19.2 µM | > 25 µM | 8.71 µM | > 25 µM | 17.3 µM | > 25 µM | 11.8 | > 25
10 | COC1=C(OC)C(=O)C(CCCCCCCCCCO)=C(C)C1=O | 9.61 µM | 21.7 µM | 13.1 µM | 26.6 µM | 4.01 µM | 29 µM | 9.74 µM | 29.7 µM | 15 µM | 31 µM | 5.24 µM | 22 | 11.2 µM | 35.3 µM | 10.2 µM | 24.7 µM | 14.8 µM | 31.3 µM | 3.18 | 19
11 | c1ccc(C2CCCCC2)c(OCCCCCN2CCNCC2)c1 | 1.7 µM | 4.27 µM | 4.54 µM | 20.7 µM | 2.81 µM | 10.9 µM | 2.77 µM | 12.6 µM | 1.86 µM | 3.89 µM | 1.62 µM | 3.75 | 10.3 µM | 28.5 µM | 2.74 µM | 11.1 µM | 3.49 µM | 14.4 µM | 0.995 | 4.56
12 | CN1C(=NCCO)NS(=O)(=O)c2ccccc21 | – | > 100 µM | – | > 100 µM | – | > 100 µM | – | > 100 µM | – | > 100 µM | – | > 100 | – | > 100 µM | – | > 100 µM | – | > 100 µM | – | > 100
13 | C=C1C(=O)O[C@H]2[C@H]1CC/C(COC(=O)NCc1c[nH]c3ccc(F)cc13)=C\CC[C@@]1(C)O[C@@H]21 | 0.899 µM | 2.43 µM | 3.46 µM | 12.9 µM | 1.53 µM | 3.18 µM | 1.54 µM | 3.34 µM | 1.23 µM | 2.73 µM | 1.63 µM | 3.16 | 0.835 µM | 2.4 µM | 0.984 µM | 3.07 µM | 6.56 µM | 20 µM | 0.266 | 5.85
14 | COc1ccc(C2CC(c3ccc(N(C)C)cc3)=NN2c2ccc(S(N)(=O)=O)cc2)cc1 (stereo unspecified) | 3.79 µM | 20.6 µM | 2.15 µM | 8.53 µM | 3.35 µM | > 100 µM | 4.31 µM | > 100 µM | 4.42 µM | > 100 µM | 4.73 µM | 60.3 | 2.69 µM | 6.69 µM | 3.02 µM | 8.18 µM | 5.94 µM | > 100 µM | 3.77 | > 100
15 | O=C1/C(=C/c2ccccc2O)N=C(c2ccccc2)N1c1cc(C(F)(F)F)ccc1Cl | 18.3 µM | 44.1 µM | 59.4 µM | > 100 µM | 14.3 µM | 38.5 µM | 14.3 µM | 64.3 µM | 62.5 µM | > 100 µM | 20.7 µM | 71.2 | 48.4 µM | > 100 µM | 54.2 µM | > 100 µM | 31.6 µM | > 100 µM | 5.51 | > 100
16 | CN(C)c1nc(N)c(C#N)c(C#N)c1C#N | – | > 10 µM | – | > 10 µM | – | > 10 µM | – | > 10 µM | – | > 10 µM | – | > 10 | – | 3.8 µM | – | > 10 µM | – | > 10 µM | – | > 10
17 | CC1(C)[C@H](O)[C@H](F)C[C@@]2(C)Oc3ccc(C(=O)Nc4ccc5c(c4)NC(=O)C54CCN(CCCCC#N)CC4)cc3C[C@H]12 | 0.0267 µM | 1.8 µM and 4.76 µM | 0.0341 µM | 0.548 µM | – | 38.5 µM | 2.05 µM and 3.63 µM | 34.4 µM | 0.606 µM and 1.06 µM | 4.97 µM and 3.79 µM | 0.842 µM and 0.537 µM | 8.56 | 1.77 µM and 1.02 µM | 7.86 µM and 2.52 µM | 3.82 µM and 12 µM | 30.4 µM | 0.412 µM and 1.07 µM | 6.81 µM | 0.0106 | 2.6
18 | Nc1nc(-c2ccc(Cl)cc2)nc2c1sc(=S)n2-c1ccccc1 | 1.84 µM | 3.62 µM | 1.92 µM | 5.19 µM | 9.17 µM | 84.5 µM | 3.3 µM | 17 µM | 7.87 µM | 38.1 µM | 3.44 µM | 10.6 | 5.64 µM | > 100 µM | 2.75 µM | 7.64 µM | 3.55 µM | 10.1 µM | 5.82 | > 100
19 | COc1cc(-c2ncn(/C=C\c3nnco3)n2)cc(C(F)(F)F)c1 | 0.465 µM | > 51.9 µM | 0.0421 µM | 0.619 µM | 0.154 µM | > 100 µM | 1.89 µM | > 100 µM | 0.791 µM | 37.2 µM | 0.208 µM | > 71.2 | 0.0671 µM | 1.61 µM | 0.12 µM | 2.69 µM | 0.175 µM | > 100 µM | 0.021 | > 100
20 | COCCOCCOCCOCCOC(=O)OC[n+]1ccc(NC(=NCCCCCCOc2ccc(Cl)cc2)NC#N)cc1 | 10.3 µM | 22.9 µM | 1.28 µM | 15.4 µM | 3.3 µM | 20.5 µM | 0.465 µM | 24.7 µM | 0.0409 µM | 14.7 µM | 5.19 µM | 23.7 | – | 18.7 µM | 4.69 µM | 19.3 µM | 0.199 µM | 18.3 µM | 0.0905 | > 45.6
